# Columns and labels:
# [1] = organism: Canis familiaris; assay: Ischemic myocardial residue fraction of [13N]-labeled amino acid was observed with a single pass uptake technique in open-chest instrumented dogs (control - 17.3+/-6.1); format: functional, Canis lupus familiaris
# [2] = organism: Canis familiaris; assay: Ischemic myocardial half-life measured after intracoronary injection of [13N]-labeled amino acid in dogs (control - 15.9+/-0.2); format: ADME, organism-based, Canis lupus familiaris, Myocardium; conditions: dog, in vivo, other
# [3] = organism: Canis familiaris; assay: Ischemic myocardial half-life measured after intracoronary injection of [13N]-labeled amino acid in dogs (control - 147+/-12); format: ADME, organism-based, Canis lupus familiaris; conditions: dog, in vivo, other
# [4] = organism: Canis familiaris; assay: Ischemic myocardial residue fraction of [13N]-labeled amino acid was observed with a single pass uptake technique in open-chest instrumented dogs (control - 14+/-4.2); format: functional, Canis lupus familiaris
# [5] = organism: Canis familiaris; assay: Ischemic myocardial half-life measured after intracoronary injection of [13N]-labeled amino acid in dogs (control - 88+/-2); format: ADME, organism-based, Canis lupus familiaris, Myocardium; conditions: dog, in vivo, other
# [6] = organism: Canis familiaris; assay: Ischemic myocardial residue fraction of [13N]-labeled amino acid was observed with a single pass uptake technique in open-chest instrumented dogs (control - 18.5+/-2.1); format: functional, Canis lupus familiaris
# [7] = organism: Canis familiaris; assay: Ischemic myocardial half-life measured after intracoronary injection of [13N]-labeled amino acid in dogs (control - 114.1+/-26.5); format: ADME, organism-based, Canis lupus familiaris, Myocardium; conditions: dog, in vivo, other
# [8] = organism: Canis familiaris; assay: Ischemic myocardial residue fraction of [13N]-labeled amino acid was observed with a single pass uptake technique in open-chest instrumented dogs (control - 8.1+/-3.1); format: functional, Canis lupus familiaris
compound,measurement,setting,value
NC(=O)CC[C@H](N)C(=O)O [GLUTAMINE],Residue fraction,[1],20.5%
same,T1/2,[2],17.5 min
N[C@@H](CC(=O)O)C(=O)O [ASPARTIC ACID],T1/2,[3],172 min
same,Residue fraction,[4],17%
C[C@H](N)C(=O)O [ALANINE],T1/2,[5],77.5 min
same,Residue fraction,[6],19.5%
N[C@@H](CCC(=O)O)C(=O)O [GLUTAMIC ACID],T1/2,[7],81.2 min
same,Residue fraction,[8],11.5%
